Each structure is given as a SMILES string. Where a name gives a salt, the structure may show the parent alone.

The target in this test is T1, human 5-HT4(a) (Homo sapiens, UniProt Q13639).
T1 construct: host or cells: GeneBIAzer HTR4-CRE-bla CHO-K1 cells
T1 sequence (Q13639 1-387 isoform Q13639-2): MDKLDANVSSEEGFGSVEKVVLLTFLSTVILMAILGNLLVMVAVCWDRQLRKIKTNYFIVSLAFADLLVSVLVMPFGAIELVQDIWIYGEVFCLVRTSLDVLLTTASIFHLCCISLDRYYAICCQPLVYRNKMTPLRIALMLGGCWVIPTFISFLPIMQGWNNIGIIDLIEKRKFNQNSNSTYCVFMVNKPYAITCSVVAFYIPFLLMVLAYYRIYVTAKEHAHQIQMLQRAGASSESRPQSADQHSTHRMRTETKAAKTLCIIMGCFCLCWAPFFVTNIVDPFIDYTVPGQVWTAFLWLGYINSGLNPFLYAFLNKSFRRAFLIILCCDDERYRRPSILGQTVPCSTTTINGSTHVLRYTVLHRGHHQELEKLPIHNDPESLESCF
Kind of test: Evaluation of agonistic activity in CHO-K1 cells expressing human 5-HT4(a) (GeneBIAzer HTR4-CRE-bla CHO-K1 cells, beta-lactamase fluorescence ratio, EC50 from 8 concentrations). Format: cell-based. The protocol: Evaluation of Agonistic Activity in CHO-K1 Cells Expressing Human 5-HT4(a)
As CHO-K1 cells stably expressing human 5-HT4(a), we used the GeneBIAzer HTR4-CRE-bla CHO-K1 cells (Invitrogen Corp.). The cells were cultured, under the condition of 37° C. and 5% CO2, in a DMEM supplemented with 10% fetal bovine serum (FBS), 25 mM HEPES (pH7.4), 600 μg/ml hygromycin B, 0.1 mM non-essential amino acids, 100 unit/ml penicillin and 100 μg/ml streptomycin. Subcultures were performed three times per one week, each being at less than 80% confluence. At the previous day before treating test compounds, the cells were collected using 0.5% trypsin/EDTA and then diluted with a DMEM supplemented with 1% FBS, 25 mM HEPES, and 0.1 mM non-essential amino acids into 3.125×10^5 cells/ml. 32 μl of the diluted cells were added into 384-well plate (10^4 cells per well) and then incubated overnight. After the overnight culture, 8 μl of the medium having 1% of DMSO was added into the cell-free control well and the non-stimulating control well, respectively. 8 μl of the respective test compound dilutions (which had been prepared by diluting by 100-times with the medium as mentioned in the above) having 1% of DMSO were added to the respective remaining wells. After being cultured in the incubator for 5 hours, the wells of the 384-plate were treated with the substrate solution (8 μl per well) prepared according to the vendor's instruction (i.e., Invitrogen's instruction), and then incubated in the dark room for additional two hours. Agonistic activities on 5-HT4 receptor were evaluated, on the basis of fluorescence values of the cleavage-products by beta-lactamase. After exciting to 410 nm of wavelength using a fluorescence detector (Genios Pro), we measured the fluorescence values at two emission wavelengths (first wavelength: 465 nm, second wavelength: 535 nm). Data were analyzed on the basis of the ratio of fluorescence intensities of each well at the respective wavelengths. Each EC50 value was calculated by non-linear regression analysis using the “GraphPad Prism” program, based on the activities according to 8-different concentrations of the test compounds.
`CCCCc1cc(N2CCCCC2CCO)nc(Nc2ccc(F)cc2)n1` (stereo not drawn) [Example 22, 2-{1-[6-butyl-2-(4-fluorophenylamino)pyrimidin-4-yl]piperidin-2-yl}ethanol]: the EC50 is 0.19 nM.

Turning to `CCCc1cc(N2CCCCC2CCO)nc(Nc2ccc(Cl)c([N+](=O)[O-])c2)n1` (stereo not drawn) [Example 24, 2-{1-[2-(4-chloro-3-nitrophenylamino)-6-propylpyrimidin-4-yl]piperidin-2-yl}ethanol], the EC50 is 0.026 nM. Under `CCCc1cc(N2CCCCC2CCO)nc(Nc2cccc(SC)c2)n1` (stereo not drawn) [Example 25, 2-(1-{2-[3-(methylthio)phenylamino]-6-propylpyrimidin-4-yl}piperidin-2-yl)ethanol] stands 0.073 nM; under `CCCc1cc(N2CCCCC2)nc(Nc2ccc(F)c([N+](=O)[O-])c2)n1` [Example 40, N-(4-fluoro-3-nitrophenyl)-4-(piperidin-1-yl)-6-propylpyrimidin-2-amine], 0.26 nM. With `CCCc1cc(N2CCCCC2)nc(Nc2ccc(Cl)c([N+](=O)[O-])c2)n1` [Example 45, N-(4-chloro-3-nitrophenyl)-4-(piperidin-1-yl)-6-propylpyrimidin-2-amine] the figure was 0.27 nM; with `CCCc1cc(N2CCCCC2)nc(Nc2ccc(C)c([N+](=O)[O-])c2)n1` [Example 47, N-(4-methyl-3-nitrophenyl)-4-(piperidin-1-yl)-6-propylpyrimidin-2-amine], 0.15 nM; with `CCCc1cc(N2CCCC3CCCCC32)nc(Nc2ccc3cc[nH]c3c2)n1` (stereo not drawn) [Example 73, N-[4-(octahydroquinolin-1(2H)-yl)-6-propylpyrimidin-2-yl]-1H-indol-6-amine], 0.24 nM.

With `CCCc1cc(N2CCCCC2CCO)nc(Nc2ccc3cc[nH]c3c2)n1` (stereo not drawn) [Example 74, 2-{1-[2-(1H-indol-6-ylamino)-6-propylpyrimidin-4-yl]piperidin-2-yl}ethanol], the EC50 was determined as 0.063 nM.

Take `CCCc1cc(N2CCCCC2)nc(Nc2ccc3cc[nH]c3c2)n1` [Example 76, N-[4-(piperidin-1-yl)-6-propylpyrimidin-2-yl]-1H-indol-6-amine]: the EC50 stood at 0.061 nM. Under `CCCc1cc(N2CCOCC2)nc(Nc2ccc3cc[nH]c3c2)n1` [Example 77, N-(4-morpholino-6-propylpyrimidin-2-yl)-1H-indol-6-amine] stands 0.084 nM. With `CCCc1cc(N2CCCCC2CC)nc(Nc2ccc3cc[nH]c3c2)n1` (stereo not drawn) [Example 78, N-[4-(2-ethylpiperidin-1-yl)-6-propylpyrimidin-2-yl]-1H-indol-6-amine] the figure was 0.12 nM. For the molecule `CCCc1cc(N2CCNC[C@H]2C)nc(Nc2cccc(C#N)c2)n1` [Example 82, (R)-3-[4-(2-methylpiperazin-1-yl)-6-propylpyrimidin-2-ylamino]benzonitrile dihydrochloride], the half-maximal effective concentration (EC50) came to 0.096 nM. With `CCCc1cc(N2CCOCC2)nc(Nc2cccc([N+](=O)[O-])c2)n1` [Example 83, 4-morpholino-N-(3-nitrophenyl)-6-propylpyrimidin-2-amine hydrochloride] the figure was 0.36 nM; with `CCCc1cc(N2CCOCC2)nc(Nc2ccc(F)c([N+](=O)[O-])c2)n1` [Example 84, N-(4-fluoro-3-nitrophenyl)-4-morpholino-6-propylpyrimidin-2-amine hydrochloride], 0.27 nM. Under `CCCc1cc(N2CCCCC2CC)nc(Nc2cccc([N+](=O)[O-])c2)n1` (stereo not drawn) [Example 99, 4-(2-ethylpiperidin-1-yl)-N-(3-nitrophenyl)-6-propylpyrimidin-2-amine] stands 0.37 nM. With `CCCc1cc(N2CCCCC2CC)nc(Nc2ccc(F)c([N+](=O)[O-])c2)n1` (stereo not drawn) [Example 100, 4-(2-ethylpiperidin-1-yl)-N-(4-fluoro-3-nitrophenyl)-6-propylpyrimidin-2-amine] the figure was 0.2 nM; with `CCCc1cc(N2CCCCC2CC)nc(Nc2ccc(Cl)c([N+](=O)[O-])c2)n1` (stereo not drawn) [Example 101, N-(4-chloro-3-nitrophenyl)-4-(2-ethylpiperidin-1-yl)-6-propylpyrimidin-2-amine], 0.24 nM. For the molecule `CCCc1cc(N2CCCCC2CC)nc(Nc2cccc(OC)c2)n1` (stereo not drawn) [Example 102, 4-(2-ethylpiperidin-1-yl)-N-(3-methoxyphenyl)-6-propylpyrimidin-2-amine], the EC50 was 0.47 nM. With `CCCc1cc(N2CCCCC2CC)nc(Nc2cccc(SC)c2)n1` (stereo not drawn) [Example 104, 4-(2-ethylpiperidin-1-yl)-N-[3-(methylthio)phenyl]-6-propylpyrimidin-2-amine] the figure was 0.36 nM. Under `CCCc1cc(N2CCCCC2CC)nc(Nc2ccc3nc(C(F)(F)F)[nH]c3c2)n1` (stereo not drawn) [Example 109, N-[4-(2-ethylpiperidin-1-yl)-6-propylpyrimidin-2-yl]-2-(trifluoromethyl)-1H-benzo[d]imidazol-6-amine] stands 0.32 nM.

`CCCc1cc(N2CCCCC2CC)nc(Nc2cccc(C#N)c2)n1` (stereo not drawn) [Example 111, 3-[4-(2-ethylpiperidin-1-yl)-6-propylpyrimidin-2-ylamino]benzonitrile]: the half-maximal effective concentration (EC50) is 0.091 nM. Under `CCCc1cc(N2CCCCC2CC)nc(Nc2cc(OC)ccc2C)n1` (stereo not drawn) [Example 112, 4-(2-ethylpiperidin-1-yl)-N-(5-methoxy-2-methylphenyl)-6-propylpyrimidin-2-amine] stands 0.37 nM. Under `CCCc1cc(N2CCCCC2CC)nc(Nc2cnc3ccccc3c2)n1` (stereo not drawn) [Example 114, N-[4-(2-ethylpiperidin-1-yl)-6-propylpyrimidin-2-yl]quinolin-3-amine] stands 0.31 nM; under `CCCc1cc(N2CCNC[C@H]2C)nc(Nc2ccc(Cl)c([N+](=O)[O-])c2)n1` [Example 117, (R)-N-(4-chloro-3-nitrophenyl)-4-(2-methylpiperazin-1-yl)-6-propylpyrimidin-2-amine], 0.077 nM; under `CCCc1cc(N2CCNC[C@H]2C)nc(Nc2ccc3cc[nH]c3c2)n1` [Example 118, (R)-N-[4-(2-methylpiperazin-1-yl)-6-propylpyrimidin-2-yl]-1H-indol-6-amine], 0.024 nM. Under `CCCc1cc(N2CCNC[C@H]2C)nc(Nc2cccc(C(F)(F)F)c2)n1` [Example 119] stands 0.156 nM; under `CCCc1cc(N2CCNC[C@H]2C)nc(Nc2cccc([N+](=O)[O-])c2)n1` [Example 120], 0.073 nM; under `CCCc1cc(N2CCNC[C@H]2C)nc(Nc2ccc(F)c([N+](=O)[O-])c2)n1` [Example 121, (R)-N-(4-fluoro-3-nitrophenyl)-4-(2-methylpiperazin-1-yl)-6-propylpyrimidin-2-amine], 0.093 nM.

For `CCCc1cc(N2CCNC[C@H]2C)nc(Nc2ccc(C)c([N+](=O)[O-])c2)n1` [Example 122, (R)-N-(4-methyl-3-nitrophenyl)-4-(2-methylpiperazin-1-yl)-6-propylpyrimidin-2-amine], the EC50 was 0.011 nM. Under `CCCc1cc(N2CCNC[C@H]2C)nc(Nc2ccc(F)c(N)c2)n1` [Example 123, (R)-4-fluoro-N^1-[4-(2-methylpiperazin-1-yl)-6-propylpyrimidin-2-yl]benzene-1,3-diamine] stands 0.121 nM; under `CCCc1cc(N2CCNC[C@H]2C)nc(Nc2ccc(N)c(C(F)(F)F)c2)n1` [Example 124, (R)-N^1-[4-(2-methylpiperazin-1-yl)-6-propylpyrimidin-2-yl]-3-(trifluoromethyl)benzene-1,4-diamine], 0.028 nM; under `CCCc1cc(N2CCNC[C@H]2C)nc(Nc2ccc(F)c(C#N)c2)n1` [Example 125, (R)-2-fluoro-5-[4-(2-methylpiperazin-1-yl)-6-propylpyrimidin-2-ylamino]benzonitrile], 0.051 nM.

`CCCc1cc(N2CCNC[C@H]2C)nc(Nc2ccc(C)c(C#N)c2)n1` [Example 126, (R)-2-methyl-5-[4-(2-methylpiperazin-1-yl)-6-propylpyrimidin-2-ylamino]benzonitrile]: the EC50 amounted to 0.013 nM. With `CCCc1cc(N2CCNC[C@H]2C)nc(Nc2ccc(N)c(C#N)c2)n1` [Example 127, (R)-2-amino-5-[4-(2-methylpiperazin-1-yl)-6-propylpyrimidin-2-ylamino]benzonitrile] the figure was 0.053 nM; with `CCCc1cc(N2CCNC[C@H]2C)nc(Nc2ccc(N)c([N+](=O)[O-])c2)n1` [Example 128, (R)-N^1-[4-(2-methylpiperazin-1-yl)-6-propylpyrimidin-2-yl]-3-nitrobenzene-1,4-diamine], 0.0049 nM. With `CCCc1cc(N2CCNC[C@H]2C)nc(Nc2cc(N)cc(C#N)c2)n1` [Example 129, (R)-3-amino-5-[4-(2-methylpiperazin-1-yl)-6-propylpyrimidin-2-ylamino]benzonitrile] the figure was 0.0041 nM.

As usually defined, the EC50 is the midpoint of the concentration-response curve.

Values taken from patent US9850227B2 (YUHAN CORPORATION, priority 2011, dated 2017).
